Like-named read-outs stand apart in the source and are kept apart here.
Key:
[1] = Effect of smoking on concentration of tasimelteon and metabolites; format: in vivo, human
Description: Smokers were defined as those smoking 10 or more cigarettes per day. Non-smokers were defined as those smoking no cigarettes per day.

[2] = tmax after administration; format: in vivo, human; conditions: tasimelteon
[3] = Solubility and pH of saturated solution; format: physicochemical
[4] = tested on: blind individuals with Non-24; test: RESET Study: randomized withdrawal study, maintenance of effect in Non-24; format: in vivo, human
Procedure: Patients were treated with tasimelteon for at least twelve weeks during an open-label run-in phase during the SET Study. Patients who responded to tasimelteon treatment during the run-in phase were then randomized to receive either placebo or tasimelteon (20 mg/day) for 2 months.
The primary endpoint of the RESET Study was the maintenance of effect as measured by entrainment of the melatonin (aMT6s) rhythm.
The RESET study also assessed a number of secondary endpoints including maintenance of entrainment of the cortisol rhythm and a range of sleep and wake parameters including LQ-nTST (total nighttime sleep in the worst 25% of nights), UQ-dTSD (total daytime sleep duration in the worst 25% of days) and MoST (midpoint of sleep timing from both nighttime and daytime sleep).

[5] = tested on: Non-24 patients; test: Entrainment by baseline peak aMT6s and beta blocker status (clinical studies); format: in vivo, human
Procedure: Results of clinicalstudy also show a strong correlation between endogenous melatonin and efficacy of tasimelteon in entraining patients to a 24 hour circadian rhythm. The following table (Table 3A) compares the peak aMT6s levels in the 24 entrained and 23 non-entrained patients.
Data from these studies currently available also indicate that beta blocker therapy is […] related to efficacy of tasimelteon, i.e., patients receiving beta blocker therapy were less likely to become entrained than patients who were not.

[6] = Effect of fluvoxamine co-administration on tasimelteon pharmacokinetics; format: in vivo, human; conditions: for AUC: both sexes, human, in vivo
Procedure: Twenty-four healthy male or female subjects between the ages of 18 and 55 years of age (inclusive) who were non-smokers with a body mass index (BMI) of 18 and 35 kg/m2 participated in this open-label, single-sequence study conducted at one site. On day 1, subjects were administered 5.667 mg of tasimelteon.

[7] = biological target: T1, Mel1b (MT2R) (Homo sapiens, UniProt P49286); test: Affinity (Ki) for melatonin receptor MT2R; format: binding; conditions: MT2R vs MT1R
T1 sequence (P49286 1-362): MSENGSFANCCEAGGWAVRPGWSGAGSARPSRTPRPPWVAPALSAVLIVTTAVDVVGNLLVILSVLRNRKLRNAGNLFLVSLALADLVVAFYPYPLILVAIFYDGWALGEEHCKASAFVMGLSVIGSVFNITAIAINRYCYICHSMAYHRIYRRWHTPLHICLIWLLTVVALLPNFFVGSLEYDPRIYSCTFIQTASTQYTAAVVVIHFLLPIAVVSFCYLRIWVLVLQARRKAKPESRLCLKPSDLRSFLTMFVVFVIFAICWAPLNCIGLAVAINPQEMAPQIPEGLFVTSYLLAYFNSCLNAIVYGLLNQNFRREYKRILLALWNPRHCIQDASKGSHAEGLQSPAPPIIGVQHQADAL

[8] = tested on: patients with Non-24; test: SET Study: Phase III randomized, double-masked, placebo-controlled study in Non-24; format: in vivo, human
Procedure: Specifically, patients were orally administered 20 mg tasimelteon per day for at least 12 weeks prior to re-estimating tau. Patients were selected for randomization or open label based on baseline tau estimates. Drug was administered at about 1 hour prior to target sleep time, as determined by patients based on a 9 hour nighttime sleep period.
The SET study was an 84 patient randomized, double-masked, placebo-controlled study in patients with Non-24. The primary endpoints for this study were Entrainment of the melatonin (aMT6s) rhythm to the 24-hour clock and Clinical Response as measured by Entrainment plus a score of greater than or equal to 3 on the following N24CRS:
The SET study also assessed a number of secondary endpoints including Entrainment of cortisol rhythm and a broad range of clinical sleep and wake parameters. These parameters included improvement in the total nighttime sleep in the worst 25% of nights (LQ-nTST), decrease in the total daytime sleep duration in the worst 25% of days (UQ-dTSD) and midpoint of sleep timing (MoST) which is derived from a combination of the sleep reported for both nighttime and daytime. CGI-C is a seven-point rating scale of global functioning with lower scores indicating larger improvements.

[9] = Day 8 (with fluvoxamine) vs Day 1
[10] = Day 1: 5.667 mg tasimelteon alone
[11] = fluvoxamine + tasimelteon vs tasimelteon alone
[12] = Day 8: 5.667 mg tasimelteon + 50 mg fluvoxamine

With `CCC(=O)NC[C@@H]1C[C@H]1c1cccc2c1CCO2` (relative stereo) [Tasimelteon, trans-N-[[2-(2,3-dihydrobenzofuran-4-yl)cycloprop-1yl]methyl]propanamide] the CL/F ([1]; Non-Smokers) was 1,482 ± 1,008 mL/mm, the CL/F ([1]; Smokers) was 2,290 ± 1,232 mL/mm and the “Geometric Mean Ratio, AUC (inf)” value ([1]; Smokers vs Non-Smokers) was 60.14%. For the same compound, the “Geometric Mean Ratio, CL/F” value ([1]; Smokers vs Non-Smokers) was 166.27%, the “Geometric Mean Ratio, Cmax” value ([1]; Smokers vs Non-Smokers) was 63.98% and the “Geometric Mean Ratio, Vz/F” value ([1]; Smokers vs Non-Smokers) was 144.39%. For the same compound, the “Geometric Mean Ratio, t1/2” value ([1]; Smokers vs Non-Smokers) was 86.84%, the tmax [2] was “approximately one-half” and the “native pH of a saturated solution in water” value [3] was 8.5. For the same compound, the “time to relapse analysis” value ([4]; 45 min decrement of weekly average nighttime sleep, P=0.0907) was “placebo treated patients relapsed in higher numbers and at an earlier time than tasimelteon treated patients”, the “Maintenance of entrainment (aMT6s)” value ([4]; RESET, 20 mg/day) was 90.0% and the “maintenance of entrainment (cortisol)” value ([4]; RESET, 20 mg/day) was 80.0%. The “MoST (LS mean minutes), Difference” value ([4]; RESET, tasimelteon vs placebo) was 36.0 min, the “maintenance of entrainment (cortisol), Difference” value ([4]; RESET, tasimelteon vs placebo) was 60.0% and the “Entrained, number of patients” value [5] was 13. For the same compound, the “Non-entrained, number of patients” value [5] was 21, the “Entrained, % of patients” value ([5]; Peak aMT6s <1500 ng/hr) was 41% and the “Entrained, number of patients” value ([5]; Peak aMT6s <1500 ng/hr) was 12. For the same compound, the “Non-entrained, % of patients” value ([5]; Peak aMT6s <1500 ng/hr) was 59%, the “Non-entrained, number of patients” value ([5]; Peak aMT6s <1500 ng/hr) was 17 and the “Entrained, % of patients” value ([5]; Peak aMT6s <12000 ng/hr) was 38%. For the same compound, the “Non-entrained, % of patients” value ([5]; Peak aMT6s <12000 ng/hr) was 62%, the “Entrained, % of patients” value ([5]; Peak aMT6s >1500 ng/hr) was 67% and the “Entrained, number of patients” value ([5]; Peak aMT6s >1500 ng/hr) was 12. For the same compound, the “Non-entrained, % of patients” value ([5]; Peak aMT6s >1500 ng/hr) was 33%, the “Non-entrained, number of patients” value ([5]; Peak aMT6s >1500 ng/hr) was 6 and the “Entrained, % of patients” value ([5]; Peak aMT6s >2000 ng/hr) was 85%. For the same compound, the “Entrained, number of patients” value ([5]; Peak aMT6s >2000 ng/hr) was 11, the “Non-entrained, % of patients” value ([5]; Peak aMT6s >2000 ng/hr) was 15% and the “Non-entrained, number of patients” value ([5]; Peak aMT6s >2000 ng/hr) was 2. The “Entrained, % of patients” value ([5]; Peak aMT6s All) was 51%, the “Entrained, number of patients” value ([5]; Peak aMT6s All) was 24 and the “Non-entrained, % of patients” value ([5]; Peak aMT6s All) was 49%. The “Non-entrained, number of patients” value ([5]; Peak aMT6s All) was 23, the “Entrained, number of patients” value ([5]; Taking Beta Blocker: No) was 24 and the “Non-entrained, number of patients” value ([5]; Taking Beta Blocker: No) was 19. For the same compound, the “Entrained, number of patients” value ([5]; Taking Beta Blocker: Yes) was 0, the “Non-entrained, number of patients” value ([5]; Taking Beta Blocker: Yes) was 4 and the “Geometric Mean Ratio, AUC” value [6, 9] was 653.36%. The “Geometric Mean Ratio, CL/F” value [6, 9] was 15.31%, the “Geometric Mean Ratio, Cmax” value [6, 9] was 232.74% and the “Geometric Mean Ratio, t1/2” value [6, 9] was 211.82%. The AUC [6, 10] was 102 ± 61.5 ng·h/mL, the “AUC)-inf increase upon co-administration of fluvoxamine” value [6, 11] was “approximately 7 fold” and the “Cmax increase upon co-administration of fluvoxamine” value [6, 11] was “approximately 2 fold”. For the same compound, the “greater affinity for MT2R relative to MT1R” value [7] was 2-4 times, the “Clinical Response 2 (Entrainment + N24CRS >=2)” value ([8]; 20 mg/day oral) was 28.9% and the “Entrainment (aMT6s)” value ([8]; 20 mg/day oral) was 20.0%. For the same compound, the “LQ-nTST (LS mean minutes)” value ([8]; LS mean) was 57.0 min, the “CGI-C (LS mean minutes)” value ([8]; LS mean, smaller numbers indicate improvement) was 2.6 min and the “LQ-nTST and UQ-dTSD >=90 mm” value ([8]; only subjects with significant sleep and nap problems at baseline) was 23.8%.

In the case of `CCC(=O)NC[C@@H]1C[C@H]1c1cccc(O)c1CC(=O)O` [M9], the “Geometric Mean Ratio, AUC (inf)” value ([1]; Smokers vs Non-Smokers) is reported as 74.36%, the “Geometric Mean Ratio, Cmax” value ([1]; Smokers vs Non-Smokers) is reported as 77.18% and the “Geometric Mean Ratio, t1/2” value ([1]; Smokers vs Non-Smokers) is reported as 85.40%. The “Geometric Mean Ratio, AUC” value [6, 9] was 122.56%, the “Geometric Mean Ratio, Cmax” value [6, 9] was 64.94% and the “Geometric Mean Ratio, t1/2” value [6, 9] was 328.02%. For the same compound, the AUC [6, 10] was 104 ± 30 ng·h/mL.

With `CCC(=O)NC[C@@H]1C[C@H]1c1cccc(O)c1CCO` [M11] the “Geometric Mean Ratio, AUC (inf)” value ([1]; Smokers vs Non-Smokers) was 81.84%, the “Geometric Mean Ratio, Cmax” value ([1]; Smokers vs Non-Smokers) was 84.50% and the “Geometric Mean Ratio, t1/2” value ([1]; Smokers vs Non-Smokers) was 94.13%. The “Geometric Mean Ratio, AUC” value [6, 9] was 126.03%, the “Geometric Mean Ratio, Cmax” value [6, 9] was 68.71% and the “Geometric Mean Ratio, t1/2” value [6, 9] was 248.35%. It also gave an AUC [6, 10] of 44.5 ± 17.2 ng·h/mL.

In the case of `CCC(=O)NCC1CC1c1cccc2c1C(O)CO2` (centres unmarked) [M12], the “Geometric Mean Ratio, AUC (inf)” value ([1]; Smokers vs Non-Smokers) is reported as 84.87%, the “Geometric Mean Ratio, Cmax” value ([1]; Smokers vs Non-Smokers) is reported as 115.53% and the “Geometric Mean Ratio, t1/2” value ([1]; Smokers vs Non-Smokers) is reported as 73.31%. For the same compound, the “AUC (ml)” value [6, 10] was 189 ± 90.8 ng·h/mL, the “Geometric Mean Ratio, AUC” value [6, 9] was 274.81% and the “Geometric Mean Ratio, Cmax” value [6, 9] was 92.74%. For the same compound, the “Geometric Mean Ratio, t1/2” value [6, 9] was 241.02% and the “AUC (ml)” value [6, 12] was 435 ± 109.3 ng·h/mL.

For `CCC(=O)NCC1CC1c1cccc2c1CC(O)O2` (centres unmarked) [M13], the “Geometric Mean Ratio, AUC (inf)” value ([1]; Smokers vs Non-Smokers) was 97.31%, the “Geometric Mean Ratio, Cmax” value ([1]; Smokers vs Non-Smokers) was 99.49% and the “Geometric Mean Ratio, t1/2” value ([1]; Smokers vs Non-Smokers) was 77.51%. For the same compound, the “AUC (ml)” value [6, 10] was 106 ± 32.6 ng·h/mL, the “Geometric Mean Ratio, AUC” value [6, 9] was 125.05% and the “Geometric Mean Ratio, Cmax” value [6, 9] was 69.31%. The “Geometric Mean Ratio, t1/2” value [6, 9] was 349.81% and the “AUC (ml)” value [6, 12] was 133 ± 32.9 ng·h/mL.

For `CCC(=O)NCC1CC1c1cccc2c1C(O)CO2` (centres unmarked) [M14], the “Geometric Mean Ratio, AUC (inf)” value ([1]; Smokers vs Non-Smokers) was 42.98%, the “Geometric Mean Ratio, Cmax” value ([1]; Smokers vs Non-Smokers) was 60.17% and the “Geometric Mean Ratio, t1/2” value ([1]; Smokers vs Non-Smokers) was 65.09%. For the same compound, the “AUC (ml)” value [6, 10] was 4.54 ± 2.39 ng·h/mL, the “Geometric Mean Ratio, AUC” value [6, 9] was 944.73% and the “Geometric Mean Ratio, Cmax” value [6, 9] was 264.58%. The “Geometric Mean Ratio, t1/2” value [6, 9] was 243.34% and the “AUC (ml)” value [6, 12] was 42.6 ± 27.3 ng·h/mL.

Reference: patent US11633377B2, “Treatment of circadian rhythm disorders” (Vanda Pharmaceuticals Inc., priority 2012, dated 2023)
